Reference: ChEMBL document CHEMBL3885861, “Open TG-GATES”

Species: Rattus norvegicus
Test: Open TG-GATES - Regimen: Daily Repeat
Assay type: toxicity, organism-based, Sprague-Dawley
Parameters: regimen Daily Repeat, gender Male, age 6 weeks
Details: in vivo, po, 1000 mg/kg, route gavage, dose level High; for APTT / Bas / Eos / Fbg / Hb / Ht / Lym / MCH / MCHC / MCV / Mono / Neu / PT / Plat / RBC / Ret / WBC: tissue Blood; for KIDNEY_L / KIDNEY_R / KIDNEY_TOTAL: tissue Kidney; for LIVER: tissue Liver; for A/G / ALP / ALT / AST / BUN / CRE / Ca / Cl / DBIL / GLC / IP / K / LDH / Na / PL / RALB / TBIL / TC / TG / TP / gamma-GTP: tissue Plasma

Structure (SMILES): CC[C@@H](CO)NCCN[C@@H](CC)CO [ETHAMBUTOL]
- TERMINAL_BW (72 h, time 3 day): 233.6 g
- APTT (72 h, time 3 day): 19.9 s
- Bas (72 h, time 3 day): 0%
- Eos (72 h, time 3 day): 0.8%
- Fbg (72 h, time 3 day): 303.8 mg/dL
- Hb (72 h, time 3 day): 13.5 g/dL
- Ht (72 h, time 3 day): 38.6%
- Lym (72 h, time 3 day): 77.8%
- MCH (72 h, time 3 day): 21.4 pg
- MCHC (72 h, time 3 day): 35%
- MCV (72 h, time 3 day): 61 fL
- Mono (72 h, time 3 day): 3.2%
- Neu (72 h, time 3 day): 16.6%
- PT (72 h, time 3 day): 16.3 s
- Plat (72 h, time 3 day): 122.5 x10_4/uL
- RBC (72 h, time 3 day): 633.2 x10_4/ul
- Ret (72 h, time 3 day): 4.8%
- WBC (72 h, time 3 day): 84.1 x10_2/uL
- KIDNEY_L (72 h, time 3 day): 1 g
- KIDNEY_R (72 h, time 3 day): 1.1 g
- KIDNEY_TOTAL (72 h, time 3 day): 2.1 g
- LIVER (72 h, time 3 day): 12.7 g
- A/G (72 h, time 3 day): 1.2
- ALP (72 h, time 3 day): 1656 IU/L
- ALT (72 h, time 3 day): 49 IU/L
- AST (72 h, time 3 day): 88.2 IU/L
- BUN (72 h, time 3 day): 21 mg/dL
- CRE (72 h, time 3 day): 0.2 mg/dL
- Ca (72 h, time 3 day): 10.6 mg/dL
- Cl (72 h, time 3 day): 108 meq/L
- DBIL (72 h, time 3 day): 0.002 mg/dL
- GLC (72 h, time 3 day): 177.8 mg/dL
- IP (72 h, time 3 day): 8.1 mg/dL
- K (72 h, time 3 day): 4 meq/L
- LDH (72 h, time 3 day): 160.8 IU/L
- Na (72 h, time 3 day): 140 meq/L
- PL (72 h, time 3 day): 163.8 mg/dL
- RALB (72 h, time 3 day): 3 g/dL
- TBIL (72 h, time 3 day): 0.026 mg/dL
- TC (72 h, time 3 day): 99.6 mg/dL
- TG (72 h, time 3 day): 41.2 mg/dL
- TP (72 h, time 3 day): 5.5 g/dL
- gamma-GTP (72 h, time 3 day): 1.6 IU/L
- TERMINAL_BW ([…], time 7 day): 220.6 g
- TERMINAL_BW ([…], time 14 day): 208.8 g
- TERMINAL_BW ([…], time 28 day): 151.9 g
- APTT ([…], time 7 day): 19.7 s
- Bas ([…], time 7 day): 0%
- Eos ([…], time 7 day): 0.8%
- Fbg ([…], time 7 day): 167.4 mg/dL
- Hb ([…], time 7 day): 16.1 g/dL
- Ht ([…], time 7 day): 46.3%
- Lym ([…], time 7 day): 73.8%
- MCH ([…], time 7 day): 20.8 pg
- MCHC ([…], time 7 day): 34.7%
- MCV ([…], time 7 day): 59.8 fL
- Mono ([…], time 7 day): 3.4%
- Neu ([…], time 7 day): 19.4%
- PT ([…], time 7 day): 19.6 s
- Plat ([…], time 7 day): 116.6 x10_4/uL
- RBC ([…], time 7 day): 774.8 x10_4/ul
- Ret ([…], time 7 day): 2%
- WBC ([…], time 7 day): 71 x10_2/uL
- APTT ([…], time 14 day): 21.5 s
- Bas ([…], time 14 day): 0%
- Eos ([…], time 14 day): 1.2%
- Fbg ([…], time 14 day): 228 mg/dL
- Hb ([…], time 14 day): 15.5 g/dL
- Ht ([…], time 14 day): 44.6%
- Lym ([…], time 14 day): 83.2%
- MCH ([…], time 14 day): 19.4 pg
- MCHC ([…], time 14 day): 34.8%
- MCV ([…], time 14 day): 55.6 fL
- Mono ([…], time 14 day): 2.2%
- Neu ([…], time 14 day): 12.4%
- PT ([…], time 14 day): 18.1 s
- Plat ([…], time 14 day): 126 x10_4/uL
- RBC ([…], time 14 day): 800.4 x10_4/ul
- Ret ([…], time 14 day): 0.5%
- WBC ([…], time 14 day): 95.8 x10_2/uL
- APTT ([…], time 28 day): 27.6 s
- Bas ([…], time 28 day): 0%
- Eos ([…], time 28 day): 0.3%
- Fbg ([…], time 28 day): 252 mg/dL
- Hb ([…], time 28 day): 17.2 g/dL
- Ht ([…], time 28 day): 49.9%
- Lym ([…], time 28 day): 41.3%
- MCH ([…], time 28 day): 18 pg
- MCHC ([…], time 28 day): 34.6%
- MCV ([…], time 28 day): 52 fL
- Mono ([…], time 28 day): 8.3%
- Neu ([…], time 28 day): 46.7%
- PT ([…], time 28 day): 19.9 s
- Plat ([…], time 28 day): 105.7 x10_4/uL
- RBC ([…], time 28 day): 960 x10_4/ul
- Ret ([…], time 28 day): 0.7%
- WBC ([…], time 28 day): 102.9 x10_2/uL
- KIDNEY_L ([…], time 7 day): 1 g
- KIDNEY_R ([…], time 7 day): 1.1 g
- KIDNEY_TOTAL ([…], time 7 day): 2.1 g
- KIDNEY_L ([…], time 14 day): 1 g
- KIDNEY_R ([…], time 14 day): 1 g
- KIDNEY_TOTAL ([…], time 14 day): 2 g
- KIDNEY_L ([…], time 28 day): 0.9 g
- KIDNEY_R ([…], time 28 day): 0.9 g
- KIDNEY_TOTAL ([…], time 28 day): 1.8 g
- LIVER ([…], time 7 day): 10.6 g
- LIVER ([…], time 14 day): 9.2 g
- LIVER ([…], time 28 day): 6.7 g
- A/G ([…], time 7 day): 1.2
- ALP ([…], time 7 day): 1664.8 IU/L
- ALT ([…], time 7 day): 76.6 IU/L
- AST ([…], time 7 day): 165.4 IU/L
- BUN ([…], time 7 day): 22.2 mg/dL
- CRE ([…], time 7 day): 0.2 mg/dL
- Ca ([…], time 7 day): 9.3 mg/dL
- Cl ([…], time 7 day): 107.4 meq/L
- DBIL ([…], time 7 day): 0.3 mg/dL
- GLC ([…], time 7 day): 145.2 mg/dL
- IP ([…], time 7 day): 8.3 mg/dL
- K ([…], time 7 day): 4.6 meq/L
- LDH ([…], time 7 day): 334 IU/L
- Na ([…], time 7 day): 138.8 meq/L
- PL ([…], time 7 day): 108 mg/dL
- RALB ([…], time 7 day): 2.4 g/dL
- TBIL ([…], time 7 day): 0.3 mg/dL
- TC ([…], time 7 day): 59.6 mg/dL
- TG ([…], time 7 day): 15.6 mg/dL
- TP ([…], time 7 day): 4.3 g/dL
- gamma-GTP ([…], time 7 day): 1.4 IU/L
- A/G ([…], time 14 day): 1.1
- ALP ([…], time 14 day): 1208.4 IU/L
- ALT ([…], time 14 day): 53 IU/L
- AST ([…], time 14 day): 108.6 IU/L
- BUN ([…], time 14 day): 21.8 mg/dL
- CRE ([…], time 14 day): 0.2 mg/dL
- Ca ([…], time 14 day): 9.4 mg/dL
- Cl ([…], time 14 day): 108.6 meq/L
- DBIL ([…], time 14 day): 0.068 mg/dL
- GLC ([…], time 14 day): 155.2 mg/dL
- IP ([…], time 14 day): 6.8 mg/dL
- K ([…], time 14 day): 4.1 meq/L
- LDH ([…], time 14 day): 178.8 IU/L
- Na ([…], time 14 day): 139.4 meq/L
- PL ([…], time 14 day): 112.6 mg/dL
- RALB ([…], time 14 day): 2.4 g/dL
- TBIL ([…], time 14 day): 0.08 mg/dL
- TC ([…], time 14 day): 61.6 mg/dL
- TG ([…], time 14 day): 19 mg/dL
- TP ([…], time 14 day): 4.6 g/dL
- gamma-GTP ([…], time 14 day): 3.6 IU/L
- A/G ([…], time 28 day): 1.1
- ALP ([…], time 28 day): 564 IU/L
- ALT ([…], time 28 day): 45.3 IU/L
- AST ([…], time 28 day): 342 IU/L
- BUN ([…], time 28 day): 34 mg/dL
- CRE ([…], time 28 day): 0.2 mg/dL
- Ca ([…], time 28 day): 9.8 mg/dL
- Cl ([…], time 28 day): 116.7 meq/L
- DBIL ([…], time 28 day): 0.1 mg/dL
- GLC ([…], time 28 day): 321.7 mg/dL
- IP ([…], time 28 day): 10.9 mg/dL
- K ([…], time 28 day): 4.3 meq/L
- LDH ([…], time 28 day): 600.7 IU/L
- Na ([…], time 28 day): 148 meq/L
- PL ([…], time 28 day): 102 mg/dL
- RALB ([…], time 28 day): 2.9 g/dL
- TBIL ([…], time 28 day): 0.2 mg/dL
- TC ([…], time 28 day): 60 mg/dL
- TG ([…], time 28 day): 22.3 mg/dL
- TP ([…], time 28 day): 5.5 g/dL
- gamma-GTP ([…], time 28 day): 5.7 IU/L
